Results on 2 molecules are retold here after US7655430B2, “Method for analyzing residual agricultural chemical” (priority 2004, dated 2010).

Assay [1] has as its system choline esterase. Particulars: background description, no test described; cited from earlier work.
The test system of assay [2] is choline esterase. The experiment in a line: choline esterase inhibition, inhibitory signal from hydrogen peroxide generated (choline esterase/choline oxidase, acetylcholine substrate). It is filed as biochemical. How it is done: In this Example, it was intended to confirm the derivatization of carbosulfan (see FIG. 2). Carbosulfan was converted into carbofuran by adding a reduced glutathione (GSH), to a concentration of 5×10^−5M, and a glutathione-transferase (GST), to a concentration of 0.025 U/mL, to 10 mL of a 0.02M Mes buffer solution (pH 6.0) (2-morpholino-ethane sulfonic acid) containing carbosulfan in a variety of concentrations and then allowing each resulting reaction system to stand over at least 30 minutes.
Then, 10 mL of a solution containing 0.1M phosphate buffer solution (pH 7.6) and 0.2M potassium chloride was added to the foregoing solution which had been allowed to stand, to thus obtain a solution having a volume of 20 mL. […]
After bringing these components into contact with one another by allowing them to stand, acetylcholine was added to a concentration of 2×10^−4M to the foregoing solution and then the amount of hydrogen peroxide generated was determined to thus inspect the solution for the activity to inhibit the choline esterase activity. The same solution free of a carbosulfan was used as a control and this was compared with the solutions, which included carbosulfan in a variety of concentrations, based on the detected inhibitory signals corresponding to the quantities of the resulting hydrogen peroxide. […]

Regarding `CNC(=O)Oc1cccc2c1OC(C)(C)C2` [carbofuran], in the assay on choline esterase [1], the “ability to inhibit choline esterase” value is recorded as “strong activity of inhibiting choline esterase activity”.
On to `CCCCN(CCCC)SN(C)C(=O)Oc1cccc2c1OC(C)(C)C2` [carbosulfan], for which, in the assay on choline esterase [2] (after conversion with reduced glutathione (5×10^−5M) and glutathione transferase (0.025 U/mL), at least 30 minutes), the “calibration curve of inhibitory signal (FIG. 3)” value is “almost identical to that observed for the reference material of carbofuran”. The “inhibitory activity (inhibitory signal, calibration curve FIG. 3)” value with choline esterase [2] (reference material free of conversion with reduced glutathione and glutathione transferase) is given as “only a weak inhibitory activity”.
